Results on five compounds are retold here after patent US20040009168A1, “Multidose antibody formulation” (priority 2002, published 2004).

Series [1] deals with Escherichia coli, Staphylococcus aureus, Pseudomonas aeruginosa. Kind of series: Preservative screening test (modified USP/EP preservative efficacy test), bacteria. It counts as cell-based. As to conditions: for maximal log reduction against bacteria (model simulation): individual preservative; for b-coefficient, Bacterial LR: ± 95% confidence limits; for Bacterial × 10^4 (cfu/mL): 1 week at 25 ° C., total bacterial count 8.78 × 10^4 cfu/mL; for antimicrobial efficacy against bacteria (regression analysis, in words): I-optimal design, 14 days at room temperature. Here is the method: (§1) The efficacy of the preservative against various microorganisms was measured using a modified USP/EP preservative efficacy test. These tests were conducted at Microconsult Inc. (Dallas, Tex.). In the procedure, formulations were tested against the following microorganisms: Escherichia coli, Staphylococcus aureus, Pseudomonas aeruginosa, Candida albicans, and Aspergillus niger. The three bacterial strains were inoculated together at a total concentration of ˜10^5 cfu/mL, and the two fungi were inoculated together at a total concentration of ˜10^5 cfu/mL. Samples were incubated for 7 days at room temperature (25° C.), and the total bacterial and fungal counts were measured using a colony counter. The log reduction (LR) values for the bacterial and fungal counts were calculated as log (initial count/final count).
(§2) In the unmodified USP/EP preservative efficacy tests, each microorganism is tested separately at a concentration of ˜10^5 cfu/mL. […] The preservative efficacy test was modified in this study to reduce the total sample requirement and cost per analysis. Although the bacterial and fungal strains were not tested individually at specified concentrations, by comparing the overall bacterial and fungal log reduction values with the regulatory requirements, an assessment is made of the efficacy of the preservative against these microorganisms.
(§3) The formulations were prepared by adding the preservatives at the desired concentrations as per the I-optimal design table (Table II), generated using the software Strategy (Experiment Strategies Foundation & Process Builder, Inc.). All samples were incubated at 37° C. for 9 weeks. Because protein aggregation was known to be the primary degradation pathway, protein stability was examined by SEC and right-angle light scattering to monitor the formation of soluble and insoluble aggregates, respectively, and by UV spectroscopy to monitor changes in the protein concentration. The biological activity of the samples was assessed after 1 month at 37° C. Furthermore, to assess the antimicrobial efficacy of the formulations, samples were examined by the preservative screening test at the initial time point. Samples were incubated at room temperature, and the aerobic plate counts were measured based on the minimum requirements of the USP and BP/EP preservative efficacy tests at 24 hours, 7 days, and 14 days.

In series [2] the test system is Candida albicans, and Aspergillus niger. Briefly: Preservative screening test (modified USP/EP preservative efficacy test), fungi. As to conditions: for Fungi × 10^5 (cfu/mL): 1 week at 25 ° C., total fungal count 2.84 × 10^5 cfu/mL. It counts as cell-based. On the procedure:
as §1, §2, §3

Series [3] has as its system formulated humanized monoclonal antibody. Kind of series: Visual analysis of the antibody formulation with preservative. The series is classed as physicochemical. Conditions: for Visual analysis: after 2 days at 50° C. Here is the method: (§4) The compatibility of six parenteral preservatives (benzyl alcohol, chlorobutanol, methyl paraben, propyl paraben, phenol, and m-cresol) with the formulated humanized monoclonal antibody was tested. The preservatives were added to the formulated antibody based on their commonly used concentration ranges in marketed multidose products (3). Protein aggregation was suspected to be the primary degradation pathway. Preliminary evaluation of the preservatives was done initially by DSC and after 2 days of incubation at 50° C. by visual inspection for appearance and by SEC for soluble aggregates.

Series [4] has the same test system. Briefly: Size-exclusion chromatography (SEC), monomer content. As to conditions: for Effect of the preservative on antibody stability (in words): preliminary screening, 2 days at 50° C.; for Monomer (%): 1 week at 45 ° C.; for Percent monomer (by SEC): after 2 days at 50° C. The series is classed as physicochemical. Here is the method:
as §4
(§5) Because of the results seen in the preliminary evaluation, additional analyses were done using lower concentrations of the preservatives.
The monomer content, soluble aggregates, and clips due to hydrolysis were monitored by size-exclusion chromatography. The analytical system employed consisted of an HPLC pump (Perkin Elmer, Series 410) and an autosampler (Perkin Elmer, ISS 2000) connected to a diode array detector (Perkin Elmer, 235C). Two size-exclusion chromatography columns (Tosohaas TSK-Gel, G3000SWXL,), connected in tandem, were used for sample separation. The composition of the mobile phase was 200 mM KPO4, 150 mM NaCl, pH 6.9. Samples were diluted to 1 mg/mL and a sample volume of 40 μL was injected for analysis. The flow rate was 1.0 mL/min, and detection was at 220 and 280 nm.

Series [5] has the same test system. Briefly: Differential scanning calorimetry (DSC), denaturation temperature. As to conditions: for Effect on the denaturation temperature (in words): addition of the preservative, relative to control; for Tm (by DSC): initial time point, t0. It counts as physicochemical. Here is the method: as §4
A decrease in the denaturation temperature reflects a destabilizing effect of the preservative on formulation stability. The denaturation temperature (Tm) of the sample was measured using the Pyris 1 differential scanning calorimeter (Perkin Elmer). A sample volume of 50 μL was taken from a 10 mg/mL protein sample and sealed in a stainless steel pan. The sample was held at 32° C. for 2 minutes, and heated to 100° C. at the rate of 10° C./min.
For orientation: Differential scanning calorimetry records heat flow against a reference as temperature is scanned.

In series [6] the test system is antigen expressed on human T cells. Kind of series: Potency testing by FACS binding assay (flow cytometry). Conditions: 1 week at 45 ° C. Here is the method: as §5
The biological activity (potency) of the protein was measured by flow cytometry, based on the binding of the antibody antigen expressed on human T cells.
(In general: Flow cytometry measures light scatter and fluorescence of single cells or particles in a stream.)

Where [7] appears, read: main effect of the preservative (bi).
The mark [8] stands for this setting: quadratic term of one preservative (bii).
The mark [9] stands for this setting: single preservative, 0.2% chlorobutanol.

With `CC(C)(O)C(Cl)(Cl)Cl` [Chlorobutanol, chlorobutanol], in series [1], the “maximal log reduction against bacteria (model simulation)” value is listed as 2.0. In addition, the “b-coefficient, Bacterial LR” value came to 0.27 ± 0.05 in series [1] (setting [7]) and 0.17 ± 0.10 in series [1] (setting [8]). Further, in series [1] (preservative 0.2%), the “Bacterial × 10^4 (cfu/mL)” value is recorded as 46 × 10^4 cfu/mL. Also, the “log reduction value predicted by simulation, bacteria” value in series [1] (setting [9]) is 2.0. The “b-coefficient, Fungal LR” value in series [2] (setting [7]) is given as 0.07; in series [2] (setting [8]), −0.64. Moreover, the “Fungi × 10^5 (cfu/mL)” value in series [2] (preservative 0.05%) is 18 × 10^5 cfu/mL; in series [2] (preservative 0.1%), 14 × 10^5 cfu/mL; in series [2] (preservative 0.2%), 0 × 10^5 cfu/mL. In addition, the “log reduction value predicted by simulation, fungi” value in series [2] (setting [9]) was 1.2.
`COC(=O)c1ccc(O)cc1` [Methyl paraben, methyl paraben]: the Visual analysis result in series [3] (preservative 0.05%) and in series [3] (preservative 0.1%) was “Clear” each time. Further, the “Effect of the preservative on antibody stability (in words)” value (“Effect of the preservative” for short) in series [4] is given as “stable”. Moreover, the “Monomer (%)” value is given as 98.31% in series [4] (preservative 0.01%), 97.43% in series [4] (preservative 0.05%) and 97.18% in series [4] (preservative 0.1%). Moreover, the “Percent monomer (by SEC)” value was 91.3% in series [4] (preservative 0.1%) and roughly 91% in series [4] (preservative 0.1%, listed as methyl paraben). Moreover, in series [5], the “Effect on the denaturation temperature (in words)” value is “did not affect the denaturation temperature”. In addition, in series [5] (preservative 0.05%), the “Tm (by DSC)” value amounted to 80.4 °C. Also, the results for the “Potency (%)” value in series [6] (preservative 0.01%), in series [6] (preservative 0.05%) and in series [6] (preservative 0.1%) were 73%, 75% and 75%, respectively. In addition, the “antimicrobial efficacy against bacteria (regression analysis, in words)” value in series [1] is reported as “statistically significant antimicrobial efficacy”. The “maximal log reduction against bacteria (model simulation)” value in series [1] is reported as 2.3. Moreover, the “b-coefficient, Bacterial LR” value amounted to 0.60 ± 0.05 in series [1] (setting [7]) and 0.12 ± 0.10 in series [1] (setting [8]). Besides, the “Bacterial × 10^4 (cfu/mL)” value is given as “TNTC” in series [1] (preservative 0.01%), “TNTC” in series [1] (preservative 0.05%) and 56 × 10^4 cfu/mL in series [1] (preservative 0.1%). The “b-coefficient, Fungal LR” value came to 0.46 in series [2] (setting [7]) and 0.00 in series [2] (setting [8]). Also, the “Fungi × 10^5 (cfu/mL)” value in series [2] (preservative 0.01%) was 26 × 10^5 cfu/mL; in series [2] (preservative 0.05%) it was 2 × 10^5 cfu/mL; in series [2] (preservative 0.1%), 0 × 10^5 cfu/mL.
As to `Oc1ccccc1` [Phenol, phenol], the Visual analysis result is given as “Slightly cloudy” in series [3] (preservative 0.1%) and “Cloudy” in series [3] (preservative 0.5%). For the same compound, the “Effect of the preservative” value was “not compatible with the protein” in series [4]; “caused the formation of both soluble and insoluble aggregates” in series [4] (listed as phenol). Moreover, the “Percent monomer (by SEC)” value is recorded as 62.7% in series [4] (preservative 0.1%) and 20.0% in series [4] (preservative 0.5%).
Take `CCCOC(=O)c1ccc(O)cc1` [Propyl paraben, propyl paraben]: the Visual analysis entry in series [3] (preservative 0.02%) was “Clear”. Besides, the “Effect of the preservative” value in series [4] is reported as “stable”. Besides, the “Monomer (%)” value in series [4] (preservative 0.0075%) is 97.89%; in series [4] (preservative 0.01%), 97.34%. Further, the “Percent monomer (by SEC)” value in series [4] (preservative 0.02%) amounted to 85.3%; in series [4] (preservative 0.02%, listed as propyl paraben), 85%. In addition, in series [5], the “Effect on the denaturation temperature (in words)” value is given as “did not affect the denaturation temperature”. Moreover, the “Tm (by DSC)” value in series [5] (preservative 0.02%) came out at 80.6 °C. The “Potency (%)” value in series [6] (preservative 0.0075%) amounted to 74%; in series [6] (preservative 0.01%), 68%. For the same compound, the “antimicrobial efficacy against bacteria (regression analysis, in words)” value in series [1] is “not effective”. Besides, the “b-coefficient, Bacterial LR” value is given as −0.14 ± 0.05 in series [1] (setting [7]) and 0.26 ± 0.10 in series [1] (setting [8]). Also, the “Bacterial × 10^4 (cfu/mL)” value in series [1] (preservative 0.0075%) and in series [1] (preservative 0.01%) was “TNTC” throughout. Moreover, the “b-coefficient, Fungal LR” value was 0.29 in series [2] (setting [7]) and 0.40 in series [2] (setting [8]). Moreover, the “Fungi × 10^5 (cfu/mL)” value in series [2] (preservative 0.0075%) is reported as 2 × 10^5 cfu/mL; in series [2] (preservative 0.01%) it was 0 × 10^5 cfu/mL.
As for `Cc1cccc(O)c1` [m-cresol], the “Visual appearance of the formulations (in words)” value in series [3] (all tested concentrations, 2 days at 50° C.) is given as “precipitated the protein”. The Visual analysis result in series [3] (preservative 0.1%) and in series [3] (preservative 0.3%) was “Precipitated” each time. Moreover, the “Effect of the preservative” value in series [4] is listed as “not compatible with the protein”.
